Read-outs that look alike come from different tables or passages of the source.
Assays:
Assay in all cases: Kinase selectivity, P33-radiolabeled assay
Type in all cases: biochemical
Details in all cases: 10 μM ATP
CAMK2g = molecular target: T1, CAMK2g (Homo sapiens, UniProt Q13555)
T1 construct: purchased Reaction Biology Corp
Outline: (§1)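 Percent residual kinase activity versus DMSO is reported. Conditions: compound at 10 μM, ATP at 10 μM, n = 2.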

HCK = molecular target: T2, HCK (Homo sapiens, UniProt P08631)
T2 construct: purchased Reaction Biology Corp
Outline: as §1

NEK11 = molecular target: T3, NEK11 (Homo sapiens, UniProt Q8NG66)
T3 construct: purchased Reaction Biology Corp
T3 sequence (Q8NG66 1-645): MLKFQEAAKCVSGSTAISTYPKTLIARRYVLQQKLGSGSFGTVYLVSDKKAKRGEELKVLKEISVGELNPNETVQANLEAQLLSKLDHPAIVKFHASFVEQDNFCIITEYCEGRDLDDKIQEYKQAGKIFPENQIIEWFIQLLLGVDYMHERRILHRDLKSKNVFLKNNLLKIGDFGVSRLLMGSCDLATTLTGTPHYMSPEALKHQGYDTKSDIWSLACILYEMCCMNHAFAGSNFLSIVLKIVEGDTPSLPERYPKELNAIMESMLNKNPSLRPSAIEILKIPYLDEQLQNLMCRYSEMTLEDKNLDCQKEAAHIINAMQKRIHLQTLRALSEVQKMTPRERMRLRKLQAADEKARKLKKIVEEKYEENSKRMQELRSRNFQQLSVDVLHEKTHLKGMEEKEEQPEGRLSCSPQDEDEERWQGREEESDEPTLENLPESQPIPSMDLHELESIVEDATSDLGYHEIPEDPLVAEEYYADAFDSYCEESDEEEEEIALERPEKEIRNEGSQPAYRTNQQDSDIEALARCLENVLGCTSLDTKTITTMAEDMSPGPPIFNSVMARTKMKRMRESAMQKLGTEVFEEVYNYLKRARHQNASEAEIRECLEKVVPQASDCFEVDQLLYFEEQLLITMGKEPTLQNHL
Outline: as §1

MEK3 = molecular target: T4, MEK3 (Homo sapiens, UniProt P46734)
T4 construct: purchased Reaction Biology Corp
T4 sequence (P46734 1-347): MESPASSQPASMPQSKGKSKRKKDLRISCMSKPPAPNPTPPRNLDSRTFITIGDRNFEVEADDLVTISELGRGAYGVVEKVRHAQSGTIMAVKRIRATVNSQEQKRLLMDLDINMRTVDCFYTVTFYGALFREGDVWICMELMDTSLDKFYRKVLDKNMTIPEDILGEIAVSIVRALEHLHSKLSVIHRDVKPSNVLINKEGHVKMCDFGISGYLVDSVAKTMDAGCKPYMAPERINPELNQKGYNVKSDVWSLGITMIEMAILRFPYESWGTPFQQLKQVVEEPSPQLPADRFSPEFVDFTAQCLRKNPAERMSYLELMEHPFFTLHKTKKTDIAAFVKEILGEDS
Outline: as §1

STK25/YSK1 = molecular target: T5, STK25/YSK1 (Homo sapiens, UniProt O00506)
T5 construct: purchased Reaction Biology Corp
T5 sequence (O00506 whole entry): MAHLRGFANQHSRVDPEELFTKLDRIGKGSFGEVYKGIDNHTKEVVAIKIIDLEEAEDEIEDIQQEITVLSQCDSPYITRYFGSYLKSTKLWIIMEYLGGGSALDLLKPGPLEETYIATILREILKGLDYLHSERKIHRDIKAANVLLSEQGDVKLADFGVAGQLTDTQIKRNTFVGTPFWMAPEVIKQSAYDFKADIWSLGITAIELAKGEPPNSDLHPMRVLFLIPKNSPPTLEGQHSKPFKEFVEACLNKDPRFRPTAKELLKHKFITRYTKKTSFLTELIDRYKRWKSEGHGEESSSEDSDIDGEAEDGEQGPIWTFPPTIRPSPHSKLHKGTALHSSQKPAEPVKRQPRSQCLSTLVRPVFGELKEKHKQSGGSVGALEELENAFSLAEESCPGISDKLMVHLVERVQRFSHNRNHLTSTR
Outline: as §1

GRK7 = molecular target: T6, GRK7 (Homo sapiens, UniProt Q8WTQ7)
T6 construct: purchased Reaction Biology Corp
T6 sequence (Q8WTQ7 1-553): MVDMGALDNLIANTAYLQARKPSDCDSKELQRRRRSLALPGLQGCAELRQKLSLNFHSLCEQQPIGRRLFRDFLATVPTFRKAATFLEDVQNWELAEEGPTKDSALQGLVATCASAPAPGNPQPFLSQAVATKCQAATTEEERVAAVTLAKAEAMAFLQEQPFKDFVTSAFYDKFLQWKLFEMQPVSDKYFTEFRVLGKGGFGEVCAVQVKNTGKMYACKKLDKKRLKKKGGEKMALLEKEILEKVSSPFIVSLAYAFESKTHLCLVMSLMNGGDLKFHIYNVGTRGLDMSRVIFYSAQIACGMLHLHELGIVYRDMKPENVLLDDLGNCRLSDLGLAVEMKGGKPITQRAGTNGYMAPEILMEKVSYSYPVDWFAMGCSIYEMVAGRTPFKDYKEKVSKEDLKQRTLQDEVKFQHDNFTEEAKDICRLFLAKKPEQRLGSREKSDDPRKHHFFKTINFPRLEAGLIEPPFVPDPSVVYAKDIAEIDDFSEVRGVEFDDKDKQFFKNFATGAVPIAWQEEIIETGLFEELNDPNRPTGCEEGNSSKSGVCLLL
Outline: as §1

DMPK2 = molecular target: T7, DMPK2 (Homo sapiens, UniProt Q6DT37)
T7 construct: purchased Reaction Biology Corp
Outline: as §1

FYN = molecular target: T8, FYN (Homo sapiens, UniProt P06241)
T8 construct: purchased Reaction Biology Corp
T8 sequence (P06241 whole entry): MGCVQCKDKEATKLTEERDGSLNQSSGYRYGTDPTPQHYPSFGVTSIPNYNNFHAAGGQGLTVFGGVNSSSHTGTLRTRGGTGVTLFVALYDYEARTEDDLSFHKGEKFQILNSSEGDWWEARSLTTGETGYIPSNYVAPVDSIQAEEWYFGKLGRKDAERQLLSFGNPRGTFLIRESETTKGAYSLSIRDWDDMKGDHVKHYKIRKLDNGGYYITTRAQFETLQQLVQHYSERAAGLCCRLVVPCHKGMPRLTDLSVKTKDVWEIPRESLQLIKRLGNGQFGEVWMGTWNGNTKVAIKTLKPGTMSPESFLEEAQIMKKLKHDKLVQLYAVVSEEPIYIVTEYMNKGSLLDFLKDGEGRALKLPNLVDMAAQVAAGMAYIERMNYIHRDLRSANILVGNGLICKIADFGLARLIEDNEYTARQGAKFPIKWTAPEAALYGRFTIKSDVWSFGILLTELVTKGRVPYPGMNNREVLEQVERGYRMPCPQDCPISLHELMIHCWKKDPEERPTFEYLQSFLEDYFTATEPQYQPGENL
Outline: as §1

TIE2/TEK = molecular target: T9, TIE2/TEK (Homo sapiens, UniProt Q02763)
T9 construct: purchased Reaction Biology Corp
T9 sequence (Q02763 23-1124): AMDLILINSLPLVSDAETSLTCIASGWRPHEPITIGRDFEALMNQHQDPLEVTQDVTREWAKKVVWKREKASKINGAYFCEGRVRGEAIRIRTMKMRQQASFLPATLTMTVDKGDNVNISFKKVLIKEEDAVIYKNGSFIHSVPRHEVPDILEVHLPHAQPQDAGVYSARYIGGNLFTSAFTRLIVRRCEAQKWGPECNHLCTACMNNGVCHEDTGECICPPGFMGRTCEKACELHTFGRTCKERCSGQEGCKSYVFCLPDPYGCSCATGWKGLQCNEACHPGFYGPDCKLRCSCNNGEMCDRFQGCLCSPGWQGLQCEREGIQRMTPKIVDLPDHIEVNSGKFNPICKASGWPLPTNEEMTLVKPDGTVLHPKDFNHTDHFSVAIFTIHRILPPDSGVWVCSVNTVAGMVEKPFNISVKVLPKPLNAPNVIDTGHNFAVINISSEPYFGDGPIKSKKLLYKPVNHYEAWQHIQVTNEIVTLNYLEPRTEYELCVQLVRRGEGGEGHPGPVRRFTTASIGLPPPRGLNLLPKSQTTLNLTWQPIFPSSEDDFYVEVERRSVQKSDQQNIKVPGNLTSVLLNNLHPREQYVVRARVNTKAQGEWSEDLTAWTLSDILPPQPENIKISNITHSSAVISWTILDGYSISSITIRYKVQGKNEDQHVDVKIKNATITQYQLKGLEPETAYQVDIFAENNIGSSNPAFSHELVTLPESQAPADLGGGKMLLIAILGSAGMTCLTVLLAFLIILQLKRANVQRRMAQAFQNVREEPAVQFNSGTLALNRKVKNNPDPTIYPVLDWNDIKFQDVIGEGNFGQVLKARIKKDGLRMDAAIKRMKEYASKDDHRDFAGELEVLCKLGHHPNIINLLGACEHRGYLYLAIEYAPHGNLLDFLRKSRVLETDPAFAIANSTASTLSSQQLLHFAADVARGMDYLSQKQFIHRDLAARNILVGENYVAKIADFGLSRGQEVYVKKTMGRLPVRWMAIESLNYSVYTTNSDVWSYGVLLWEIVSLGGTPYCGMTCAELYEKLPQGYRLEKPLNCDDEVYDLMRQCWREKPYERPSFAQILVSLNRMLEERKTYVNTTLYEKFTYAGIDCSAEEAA
Outline: as §1

ALK1/ACVRL1 = molecular target: T10, ALK1/ACVRL1 (Homo sapiens, UniProt P37023)
T10 construct: purchased Reaction Biology Corp
Outline: as §1

CDK1/cyclin A = molecular target: T11, CDK1/cyclin A (Homo sapiens, UniProt P06493)
T11 construct: purchased Reaction Biology Corp
T11 sequence (P06493 whole entry): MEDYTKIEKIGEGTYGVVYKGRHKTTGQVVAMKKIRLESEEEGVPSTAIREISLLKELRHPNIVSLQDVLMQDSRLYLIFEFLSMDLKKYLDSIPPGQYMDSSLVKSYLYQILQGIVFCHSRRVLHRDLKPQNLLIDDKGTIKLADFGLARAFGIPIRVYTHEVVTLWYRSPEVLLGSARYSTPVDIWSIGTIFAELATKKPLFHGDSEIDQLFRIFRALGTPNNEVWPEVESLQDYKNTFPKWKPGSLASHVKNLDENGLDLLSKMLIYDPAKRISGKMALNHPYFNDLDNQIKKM
T11 sequence (P20248 whole entry partner): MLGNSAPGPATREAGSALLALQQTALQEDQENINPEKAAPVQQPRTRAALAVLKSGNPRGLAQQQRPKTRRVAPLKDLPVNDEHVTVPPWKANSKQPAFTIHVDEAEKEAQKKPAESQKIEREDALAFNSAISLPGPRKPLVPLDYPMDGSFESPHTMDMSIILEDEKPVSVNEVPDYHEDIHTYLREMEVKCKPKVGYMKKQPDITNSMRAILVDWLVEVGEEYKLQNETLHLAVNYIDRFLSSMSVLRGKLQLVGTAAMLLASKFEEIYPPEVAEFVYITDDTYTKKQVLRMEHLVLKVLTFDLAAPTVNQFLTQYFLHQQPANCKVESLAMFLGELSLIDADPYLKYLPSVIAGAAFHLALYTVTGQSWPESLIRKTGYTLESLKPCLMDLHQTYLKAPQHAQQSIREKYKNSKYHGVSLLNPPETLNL
Outline: as §1

MLCK2/MYLK2 = molecular target: T12, MLCK2/MYLK2 (Homo sapiens, UniProt Q9H1R3)
T12 construct: purchased Reaction Biology Corp
Outline: as §1

CDK3/cyclin E = molecular target: T13, CDK3/cyclin E (Homo sapiens, UniProt Q00526)
T13 construct: purchased Reaction Biology Corp
T13 sequence (Q00526 whole entry): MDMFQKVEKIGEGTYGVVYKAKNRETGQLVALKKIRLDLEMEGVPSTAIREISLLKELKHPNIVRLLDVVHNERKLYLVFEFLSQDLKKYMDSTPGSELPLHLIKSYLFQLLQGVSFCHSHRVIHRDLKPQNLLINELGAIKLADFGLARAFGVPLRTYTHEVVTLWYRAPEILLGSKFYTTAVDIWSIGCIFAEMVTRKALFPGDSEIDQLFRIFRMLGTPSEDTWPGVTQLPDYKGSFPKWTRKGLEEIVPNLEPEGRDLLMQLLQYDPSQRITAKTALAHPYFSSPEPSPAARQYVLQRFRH
T13 sequence (P24864 whole entry partner): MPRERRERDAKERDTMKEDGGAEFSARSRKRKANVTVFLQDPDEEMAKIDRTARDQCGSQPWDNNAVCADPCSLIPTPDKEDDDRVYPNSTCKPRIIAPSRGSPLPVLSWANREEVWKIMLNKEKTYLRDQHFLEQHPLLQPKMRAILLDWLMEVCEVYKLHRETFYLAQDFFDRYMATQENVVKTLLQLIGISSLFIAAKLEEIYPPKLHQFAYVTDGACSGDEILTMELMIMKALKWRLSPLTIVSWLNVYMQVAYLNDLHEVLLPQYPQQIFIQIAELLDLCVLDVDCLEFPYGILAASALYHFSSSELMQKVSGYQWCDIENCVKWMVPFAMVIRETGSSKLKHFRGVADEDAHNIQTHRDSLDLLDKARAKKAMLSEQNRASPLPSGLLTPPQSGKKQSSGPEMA
Outline: as §1

FER = molecular target: T14, FER (Homo sapiens, UniProt P16591)
T14 construct: purchased Reaction Biology Corp
T14 sequence (P16591 whole entry): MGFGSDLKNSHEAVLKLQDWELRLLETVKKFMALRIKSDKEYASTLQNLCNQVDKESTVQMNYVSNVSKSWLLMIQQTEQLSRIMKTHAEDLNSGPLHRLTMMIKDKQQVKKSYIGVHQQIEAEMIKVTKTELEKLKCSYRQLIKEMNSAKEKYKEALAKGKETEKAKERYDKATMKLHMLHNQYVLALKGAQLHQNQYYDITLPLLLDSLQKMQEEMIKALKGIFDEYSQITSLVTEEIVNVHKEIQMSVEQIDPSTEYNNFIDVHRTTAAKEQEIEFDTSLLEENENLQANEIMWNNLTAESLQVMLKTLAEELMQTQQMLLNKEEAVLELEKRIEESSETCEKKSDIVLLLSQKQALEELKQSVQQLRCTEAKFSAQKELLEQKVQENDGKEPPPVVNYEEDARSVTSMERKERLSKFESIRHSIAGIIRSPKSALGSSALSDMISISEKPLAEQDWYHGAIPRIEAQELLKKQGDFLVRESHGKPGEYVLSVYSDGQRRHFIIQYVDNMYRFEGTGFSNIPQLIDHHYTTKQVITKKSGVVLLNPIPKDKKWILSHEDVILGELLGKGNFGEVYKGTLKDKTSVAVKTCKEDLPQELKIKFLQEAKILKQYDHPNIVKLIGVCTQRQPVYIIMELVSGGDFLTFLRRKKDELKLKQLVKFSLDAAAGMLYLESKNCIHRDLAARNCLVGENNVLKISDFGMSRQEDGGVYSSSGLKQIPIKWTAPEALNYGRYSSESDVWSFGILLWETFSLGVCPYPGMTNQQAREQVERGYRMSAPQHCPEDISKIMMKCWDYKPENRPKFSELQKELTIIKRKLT
Outline: as §1

[1] = read-out: % Enzyme Activity (relative to DMSO controls) AVG
[2] = read-out: % Enzyme Activity (relative to DMSO controls) Data 1
[3] = read-out: % Enzyme Activity (relative to DMSO controls) Data 2

T1 sequence (Q13555 whole entry): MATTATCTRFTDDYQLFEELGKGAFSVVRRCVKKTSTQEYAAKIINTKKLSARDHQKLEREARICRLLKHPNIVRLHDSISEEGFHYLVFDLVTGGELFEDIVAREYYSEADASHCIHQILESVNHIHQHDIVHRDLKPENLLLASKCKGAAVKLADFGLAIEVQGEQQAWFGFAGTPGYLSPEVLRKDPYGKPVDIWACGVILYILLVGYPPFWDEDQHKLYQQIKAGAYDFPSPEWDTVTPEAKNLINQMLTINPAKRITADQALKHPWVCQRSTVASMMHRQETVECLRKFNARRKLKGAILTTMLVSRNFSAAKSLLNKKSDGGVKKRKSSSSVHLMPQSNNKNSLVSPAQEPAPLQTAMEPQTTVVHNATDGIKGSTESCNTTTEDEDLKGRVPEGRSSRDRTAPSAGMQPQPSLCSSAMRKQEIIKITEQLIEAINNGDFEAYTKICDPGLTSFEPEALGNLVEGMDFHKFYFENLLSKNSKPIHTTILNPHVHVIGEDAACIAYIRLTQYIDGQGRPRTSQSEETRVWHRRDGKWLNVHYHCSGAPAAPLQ

How did the remaining activity at 10 µM (CAMK2g; [1]) turn out when `CC(C)(C)C(=O)N1N=CC[C@H]1c1ccccc1` [GSK′963] was run?
Its remaining activity at 10 µM is 115%.

What about the remaining activity at 10 µM (CAMK2g; [2]) of the same molecule?
Its remaining activity at 10 µM is 112%.

And the remaining activity at 10 µM (CAMK2g; [3])?
Its remaining activity at 10 µM is 118%.

What about the remaining activity at 10 µM (HCK; [1]) of the same molecule?
The remaining activity at 10 µM was 96.5%.

What about the remaining activity at 10 µM (HCK; [2]) of the same molecule?
The remaining activity at 10 µM was 95.5%.

And the remaining activity at 10 µM (HCK; [3])?
Its remaining activity at 10 µM is 97.6%.

And the remaining activity at 10 µM (NEK11; [1])?
Its remaining activity at 10 µM is 79.1%.

What about the remaining activity at 10 µM (NEK11; [2]) of the same molecule?
The remaining activity at 10 µM was 77.3%.

And the remaining activity at 10 µM (NEK11; [3])?
The remaining activity at 10 µM was 80.9%.

What about the remaining activity at 10 µM (MEK3; [1]) of the same molecule?
The remaining activity at 10 µM was 108%.

And the remaining activity at 10 µM (MEK3; [2])?
The remaining activity at 10 µM was 103%.

What about the remaining activity at 10 µM (MEK3; [3]) of the same molecule?
The remaining activity at 10 µM was 113%.

And the remaining activity at 10 µM (STK25/YSK1; [1])?
The remaining activity at 10 µM was 96.1%.

And the remaining activity at 10 µM (STK25/YSK1; [2])?
Its remaining activity at 10 µM is 96.7%.

What about the remaining activity at 10 µM (STK25/YSK1; [3]) of the same molecule?
Its remaining activity at 10 µM is 95.4%.

And the remaining activity at 10 µM (GRK7; [1])?
The remaining activity at 10 µM was 90.3%.

What about the remaining activity at 10 µM (GRK7; [2]) of the same molecule?
The remaining activity at 10 µM was 88.3%.

And the remaining activity at 10 µM (GRK7; [3])?
Its remaining activity at 10 µM is 92.4%.

What about the remaining activity at 10 µM (DMPK2; [1]) of the same molecule?
Its remaining activity at 10 µM is 139%.

And the remaining activity at 10 µM (DMPK2; [2])?
Its remaining activity at 10 µM is 140%.

And the remaining activity at 10 µM (DMPK2; [3])?
The remaining activity at 10 µM was 139%.

What about the remaining activity at 10 µM (FYN; [1]) of the same molecule?
Its remaining activity at 10 µM is 106%.

And the remaining activity at 10 µM (FYN; [2])?
The remaining activity at 10 µM was 104%.

What about the remaining activity at 10 µM (FYN; [3]) of the same molecule?
Its remaining activity at 10 µM is 107%.

What about the remaining activity at 10 µM (TIE2/TEK; [1]) of the same molecule?
The remaining activity at 10 µM was 98.1%.

What about the remaining activity at 10 µM (TIE2/TEK; [2]) of the same molecule?
The remaining activity at 10 µM was 95.5%.

And the remaining activity at 10 µM (TIE2/TEK; [3])?
The remaining activity at 10 µM was 101%.

What about the remaining activity at 10 µM (ALK1/ACVRL1; [1]) of the same molecule?
The remaining activity at 10 µM was 97.7%.

And the remaining activity at 10 µM (ALK1/ACVRL1; [2])?
The remaining activity at 10 µM was 104%.

And the remaining activity at 10 µM (ALK1/ACVRL1; [3])?
Its remaining activity at 10 µM is 91.2%.

And the remaining activity at 10 µM (CDK1/cyclin A; [1])?
Its remaining activity at 10 µM is 105%.

What about the remaining activity at 10 µM (CDK1/cyclin A; [2]) of the same molecule?
The remaining activity at 10 µM was 107%.

What about the remaining activity at 10 µM (CDK1/cyclin A; [3]) of the same molecule?
The remaining activity at 10 µM was 102%.

And the remaining activity at 10 µM (MLCK2/MYLK2; [1])?
The remaining activity at 10 µM was 104%.

What about the remaining activity at 10 µM (MLCK2/MYLK2; [2]) of the same molecule?
The remaining activity at 10 µM was 106%.

And the remaining activity at 10 µM (MLCK2/MYLK2; [3])?
Its remaining activity at 10 µM is 102%.

What about the remaining activity at 10 µM (CDK3/cyclin E; [1]) of the same molecule?
Its remaining activity at 10 µM is 106%.

And the remaining activity at 10 µM (CDK3/cyclin E; [2])?
Its remaining activity at 10 µM is 105%.

And the remaining activity at 10 µM (CDK3/cyclin E; [3])?
The remaining activity at 10 µM was 107%.

And the remaining activity at 10 µM (FER; [1])?
Its remaining activity at 10 µM is 107%.

And the remaining activity at 10 µM (FER; [2])?
The remaining activity at 10 µM was 109%.

And the remaining activity at 10 µM (FER; [3])?
Its remaining activity at 10 µM is 105%.

Source: article PMC4979471 (Cell Death Discovery, 2015)
